From ChEMBL document CHEMBL1201862, “PubChem BioAssay data set” (2004)
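How tested: cells in 96-well plates exposed to compound for 48 hours at five concentrations. At the GI50, growth is halved.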 Active and inactive are the calls of the source. No stated cut-off is given here; in the data, active = GI50 up to about 1.1 µM and inactive = higher.

Columns and labels:
Experiment in all cases: NCI anticancer screen, dose series, 48 h
MDA-N = test system: MDA-N
UACC-257 = test system: UACC-257
MDA-MB-435 = test system: MDA-MB-435
OVCAR-5 = test system: OVCAR-5
OVCAR-8 = test system: OVCAR-8
CCRF-CEM = test system: CCRF-CEM
NCI-H522 = test system: NCI-H522
HCT-116 = test system: HCT-116
ACHN = test system: ACHN
EKVX = test system: EKVX
MOLT-4 = test system: MOLT-4
HL-60 = test system: HL-60
SK-MEL-2 = test system: SK-MEL-2
DU-145 = test system: DU-145
OVCAR-4 = test system: OVCAR-4
MDA-MB-231 = test system: MDA-MB-231
CAKI-1 = test system: CAKI-1
UO-31 = test system: UO-31
RXF 393 = test system: RXF 393
HOP-92 = test system: HOP-92
NCI/ADR-RES = test system: NCI/ADR-RES
Hs-578T = test system: Hs-578T
SNB-75 = test system: SNB-75
SF-539 = test system: SF-539
SR = test system: SR
NCI-H226 = test system: NCI-H226
U-251 = test system: U-251
LOX IMVI = test system: LOX IMVI
A498 = test system: A498
SF-268 = test system: SF-268
HCT-15 = test system: HCT-15
OVCAR-3 = test system: OVCAR-3
COLO 205 = test system: COLO 205
SW-620 = test system: SW-620
TK-10 = test system: TK-10
PC-3 = test system: PC-3
SK-MEL-5 = test system: SK-MEL-5
HT-29 = test system: HT-29
RPMI-8226 = test system: RPMI-8226
SK-MEL-28 = test system: SK-MEL-28
SNB-19 = test system: SNB-19
SN12C = test system: SN12C
KM12 = test system: KM12
M14 = test system: M14
A549 = test system: A549
UACC-62 = test system: UACC-62
786-0 = test system: 786-0
MCF7 = test system: MCF7
NCI-H23 = test system: NCI-H23
NCI-H460 = test system: NCI-H460
IGROV-1 = test system: IGROV-1
SF-295 = test system: SF-295
K562 = test system: K562
HOP-62 = test system: HOP-62
SK-OV-3 = test system: SK-OV-3
Malme-3M = test system: Malme-3M

For `Clc1cc(-c2csc(Cl)c2)cs1`, the GI50 (MDA-N) was > 100 µM (inactive), the GI50 (UACC-257) was > 100 µM (inactive) and the GI50 (MDA-MB-435) was > 100 µM (inactive). The GI50 (OVCAR-5) was > 100 µM (inactive), the GI50 (OVCAR-8) was > 100 µM (inactive) and the GI50 (CCRF-CEM) was > 100 µM (inactive). For the same molecule, the GI50 (NCI-H522) was > 100 µM (inactive), the GI50 (HCT-116) was > 100 µM (inactive) and the GI50 (ACHN) was > 100 µM (inactive). The GI50 (EKVX) was > 100 µM (inactive), the GI50 (MOLT-4) was > 100 µM (inactive) and the GI50 (HL-60) was > 100 µM (inactive). For the same molecule, the GI50 (SK-MEL-2) was > 100 µM (inactive), the GI50 (DU-145) was > 100 µM (inactive) and the GI50 (OVCAR-4) was > 100 µM (inactive). For the same molecule, the GI50 (MDA-MB-231) was > 100 µM (inactive), the GI50 (CAKI-1) was > 100 µM (inactive) and the GI50 (UO-31) was > 100 µM (inactive). The GI50 (RXF 393) was > 100 µM (inactive), the GI50 (HOP-92) was > 100 µM (inactive) and the GI50 (NCI/ADR-RES) was > 100 µM (inactive). The GI50 (Hs-578T) was > 100 µM (inactive), the GI50 (SNB-75) was > 100 µM (inactive) and the GI50 (SF-539) was > 100 µM (inactive). The GI50 (SR) was > 100 µM (inactive), the GI50 (NCI-H226) was > 100 µM (inactive) and the GI50 (U-251) was > 100 µM (inactive). For the same molecule, the GI50 (LOX IMVI) was > 100 µM (inactive), the GI50 (A498) was > 100 µM (inactive) and the GI50 (SF-268) was > 100 µM (inactive). For the same molecule, the GI50 (HCT-15) was greater than 100 µM, the GI50 (OVCAR-3) was > 100 µM (inactive) and the GI50 (COLO 205) was > 100 µM (inactive). The GI50 (SW-620) was > 100 µM (inactive), the GI50 (TK-10) was > 100 µM (inactive) and the GI50 (PC-3) was > 100 µM (inactive). For the same molecule, the GI50 (SK-MEL-5) was > 100 µM (inactive), the GI50 (HT-29) was > 100 µM (inactive) and the GI50 (RPMI-8226) was > 100 µM (inactive). For the same molecule, the GI50 (SK-MEL-28) was > 100 µM (inactive), the GI50 (SNB-19) was > 100 µM (inactive) and the GI50 (SN12C) was > 100 µM (inactive). The GI50 (KM12) was > 100 µM (inactive), the GI50 (M14) was > 100 µM (inactive) and the GI50 (A549) was > 100 µM (inactive). For the same molecule, the GI50 (UACC-62) was > 100 µM (inactive), the GI50 (786-0) was > 100 µM (inactive) and the GI50 (MCF7) was > 100 µM (inactive). For the same molecule, the GI50 (NCI-H23) was > 100 µM (inactive), the GI50 (NCI-H460) was > 100 µM (inactive) and the GI50 (IGROV-1) was > 100 µM (inactive). The GI50 (SF-295) was > 100 µM (inactive).
For `COc1cc2oc(=O)cc(C)c2c(OC)c1O`, the GI50 (MDA-N) was > 100 µM (inactive), the GI50 (K562) was > 100 µM (inactive) and the GI50 (UACC-257) was > 100 µM (inactive). The GI50 (MDA-MB-435) was > 100 µM (inactive), the GI50 (OVCAR-5) was > 100 µM (inactive) and the GI50 (OVCAR-8) was > 100 µM (inactive). The GI50 (CCRF-CEM) was > 100 µM (inactive), the GI50 (HCT-116) was > 100 µM (inactive) and the GI50 (ACHN) was > 100 µM (inactive). The GI50 (EKVX) was > 100 µM (inactive), the GI50 (MOLT-4) was > 100 µM (inactive) and the GI50 (HOP-62) was > 100 µM (inactive). For the same molecule, the GI50 (SK-MEL-2) was > 100 µM (inactive), the GI50 (DU-145) was > 100 µM (inactive) and the GI50 (OVCAR-4) was > 100 µM (inactive). For the same molecule, the GI50 (SK-OV-3) was > 100 µM (inactive), the GI50 (MDA-MB-231) was > 100 µM (inactive) and the GI50 (UO-31) was > 100 µM (inactive). For the same molecule, the GI50 (NCI/ADR-RES) was > 100 µM (inactive), the GI50 (Hs-578T) was 25.2 µM (inactive) and the GI50 (SNB-75) was > 100 µM (inactive). The GI50 (SF-539) was > 100 µM (inactive), the GI50 (SR) was > 100 µM (inactive) and the GI50 (Malme-3M) was > 100 µM (inactive). For the same molecule, the GI50 (NCI-H226) was > 100 µM (inactive), the GI50 (U-251) was > 100 µM (inactive) and the GI50 (LOX IMVI) was > 100 µM (inactive). For the same molecule, the GI50 (A498) was 26.1 µM (inactive), the GI50 (SF-268) was > 100 µM (inactive) and the GI50 (HCT-15) was greater than 100 µM. The GI50 (OVCAR-3) was > 100 µM (inactive), the GI50 (COLO 205) was > 100 µM (inactive) and the GI50 (SW-620) was > 100 µM (inactive). The GI50 (TK-10) was > 100 µM (inactive), the GI50 (PC-3) was > 100 µM (inactive) and the GI50 (SK-MEL-5) was > 100 µM (inactive). The GI50 (HT-29) was > 100 µM (inactive), the GI50 (RPMI-8226) was > 100 µM (inactive) and the GI50 (SK-MEL-28) was > 100 µM (inactive). For the same molecule, the GI50 (SNB-19) was > 100 µM (inactive), the GI50 (SN12C) was > 100 µM (inactive) and the GI50 (KM12) was > 100 µM (inactive). For the same molecule, the GI50 (M14) was > 100 µM (inactive), the GI50 (A549) was > 100 µM (inactive) and the GI50 (UACC-62) was > 100 µM (inactive). For the same molecule, the GI50 (786-0) was > 100 µM (inactive), the GI50 (MCF7) was > 100 µM (inactive) and the GI50 (NCI-H23) was > 100 µM (inactive). For the same molecule, the GI50 (IGROV-1) was > 100 µM (inactive) and the GI50 (SF-295) was > 100 µM (inactive).
For `COC(=O)C1ON2C(C1C(=O)OC)C(C)(C)N(O)C2(C)C` (stereo not drawn), the GI50 (MDA-N) was > 10 µM (inactive), the GI50 (MDA-MB-435) was > 10 µM (inactive) and the GI50 (OVCAR-5) was > 10 µM (inactive). For the same molecule, the GI50 (OVCAR-8) was > 10 µM (inactive), the GI50 (HCT-116) was > 10 µM (inactive) and the GI50 (ACHN) was > 10 µM (inactive). The GI50 (EKVX) was > 10 µM (inactive), the GI50 (DU-145) was > 10 µM (inactive) and the GI50 (OVCAR-4) was > 10 µM (inactive). For the same molecule, the GI50 (MDA-MB-231) was > 10 µM (inactive), the GI50 (CAKI-1) was > 10 µM (inactive) and the GI50 (RXF 393) was > 10 µM (inactive). The GI50 (HOP-92) was > 10 µM (inactive), the GI50 (NCI/ADR-RES) was > 10 µM (inactive) and the GI50 (SNB-75) was > 10 µM (inactive). For the same molecule, the GI50 (SF-539) was > 10 µM (inactive), the GI50 (NCI-H226) was > 10 µM (inactive) and the GI50 (U-251) was > 10 µM (inactive). For the same molecule, the GI50 (SF-268) was > 10 µM (inactive), the GI50 (HCT-15) was greater than 10 µM and the GI50 (OVCAR-3) was > 10 µM (inactive). The GI50 (COLO 205) was > 10 µM (inactive), the GI50 (SW-620) was > 10 µM (inactive) and the GI50 (TK-10) was > 10 µM (inactive). The GI50 (PC-3) was > 10 µM (inactive), the GI50 (SK-MEL-5) was > 10 µM (inactive) and the GI50 (HT-29) was > 10 µM (inactive). For the same molecule, the GI50 (SK-MEL-28) was > 10 µM (inactive), the GI50 (SNB-19) was > 10 µM (inactive) and the GI50 (SN12C) was > 10 µM (inactive). The GI50 (KM12) was > 10 µM (inactive), the GI50 (M14) was > 10 µM (inactive) and the GI50 (A549) was > 10 µM (inactive). The GI50 (NCI-H23) was > 10 µM (inactive), the GI50 (IGROV-1) was > 10 µM (inactive) and the GI50 (SF-295) was > 10 µM (inactive).
